# Measured values from article PMC9823097, “Dysregulation of PRMT5 in chronic lymphocytic leukemia promotes progression with high risk of Richter’s transformation” (Nature Communications, 2023).
# Several values for one entry are separate records, joined by “and”; a condition that tells them apart may be missing. Identical values can stand only once. Entries after “also recorded” stand apart in the source; their conditions may differ.
# Columns and labels:
# [1] = Pharmacokinetic study, oral gavage to CD-1 mice, blood analyzed by LC-MS/MS; type: in vivo; details: for peak plasma level: WT CD-1 mice; for DNAUC / blood concentration at time point 0.25 / blood concentration at time point 0.5 / blood concentration at time point 1 h / blood concentration at time point 2 h / blood concentration at time point 4 h / blood concentration at time point 8 h / blood concentration at time point 12 h / blood concentration at time point 24 h / AUC / AUC(0-t) / Cmax / MRT / Tmax / half-life: 1d-single dose, male CD-1 mice, fed, blood analysis; for DNAUC / AUC / AUC(0-t) / Cmax / MRT / Tmax / half-life: 0.5%CMC+0.5%Tween80; for AUC / AUC(0-t) / Cmax / MRT / Tmax / half-life: mouse, whole blood, po
# Procedure: For in vitro assays, the compound was stored in a 10 mM solution in DMSO. […] […] Blood was collected at various time points after dosing into EDTA-K2 tubes, placed on ice, and stored at −80 °C prior to analysis by LC-MS/MS. For biochemical potency and selectivity, PRT382 was solubilized in 100% DMSO and diluted serially threefold. For assessment of selectivity, enzyme activity against a panel of 37 methyltransferases was evaluated using 3H-SAM as a radioligand probe with filtration binding. PRT382 was tested in duplicate at a final concentration of 10 µM. The percent of enzyme activity relative to DMSO control condition was determined for each enzyme.
# [2] = Pharmacokinetics in dogs (clearance, oral bioavailability); type: in vivo
# RL = experiment: Anti-proliferative activity, MTS assay, RL; type: cell-based; details: Homo sapiens, DLBCL, read-out: PRT382 IC50 (anti-proliferative)
# Procedure: (§1) Cell proliferation was assessed via MTS (3-[4,5-dimethylthiazol-2-yl]-5-[3-carboxymethoxyphenyl]-2-[4-sulfophenyl]-2H-tetrazolium) assay (Sigma), using the tetrazolium dye […]. Cell apoptosis was evaluated by Annexin V-FITC or PE and propidium iodide (PI) staining using FC500 cytometer (Beckman-Coulter, Indianapolis, IN) following the manufacturer’s procedure (BD Pharmingen, Billerica, MA)[55]. For cell cycle analysis, cells were fixed with cold ethanol overnight and then stained before analysis with 30 μg/mL propidium iodide (Invitrogen) and 200 μg/mL RNase (Sigma-Aldrich) in 0.1 % v/v Triton X-100 (Sigma-Aldrich). Cell cycle data analysis was performed using ModFit LT software (Verity Software House, Topsham, ME).
# primary CLL cells = experiment: Proliferation of primary IGHV-U CLL cells, MTS assay, 72 h, with and without CpG; type: cell-based, human; details: for Normalized A490: +CpG, individual patients' primary CLL cells, normalized to -CpG dose 0
# Excerpt: Our research complies with all relevant ethical regulations. De-identified human CLL cells were isolated as previously described after obtaining informed consent on protocols approved by The Ohio State University Cancer Institutional Review Board in accordance with the Declaration of Helsinki. All patients examined had CLL as defined by the 2008 IWCLL criteria. Sex and age of the patients who provided samples was not available. Human peripheral blood mononuclear cells (PBMC) were isolated from CLL patients using Ficoll density gradient centrifugation. (Ficoll-Paque Plus; Amersham Biosciences Inc, Piscataway, NJ). Enriched B-cell fractions were prepared using the RosetteSep™ B-cell kit (STEMCELL Technologies, Vancouver, Canada) according to the manufacturer’s instructions. Isolated cells were incubated in RPMI 1640 media (Invitrogen, Grand Island, NY) supplemented with 10% heat-inactivated fetal bovine serum (Sigma-Aldrich, St. Louis, MO), 2 mM L-glutamine (Invitrogen), and 100 U/mL penicillin/100 μg/mL streptomycin (Sigma-Aldrich) at 37 °C in an atmosphere of 5% CO2. The purity of enriched populations of CLL was routinely checked using CD19-PE (BD Pharmingen, Billerica, MA) staining by flow cytometry.
# as §1
# Mec-1 CLL cell line = experiment: Global symmetric dimethyl arginine (SDMA) western blot, Mec-1; type: cell-based; details: Mec-1, 72 h treatment
# Excerpt: Proteins extracted from whole-cell lysates were resolved by SDS-PAGE and transferred on nitrocellulose membrane as previously described. CpG685 oligonucleotide was obtained from the OSU Cytogenetics Core Lab. Antibodies used for immunoblots included anti-human PRMT5 (Abcam #ab109451), GAPDH (Millipore Sigma #MAB374), SDMA (Cell Signaling Technology #13222), c-Myc (Cell Signaling Technology #5605S), and β-Actin (Cell Signaling Technology #4967S). Cas9-mediated doxycycline-inducible knockout of PRMT5 utilized a targeted sgRNA (guide sequence: […], PAM: GGG).
# U-2932 = experiment: Anti-proliferative activity, MTS assay, U-2932; type: cell-based; details: Homo sapiens, U2932, DLBCL, read-out: PRT382 IC50 (anti-proliferative)
# Procedure: as §1
# [3] = Pharmacokinetics in rats (clearance, oral bioavailability); type: in vivo
# JVM-2 = experiment: Anti-proliferative activity, MTS assay, JVM-2; type: cell-based; details: Homo sapiens, DLBCL, read-out: PRT382 IC50 (anti-proliferative)
# Procedure: as §1
# CCMCL-1 = experiment: Anti-proliferative activity, MTS assay, CCMCL-1; type: cell-based; details: MCL, read-out: PRT382 IC50 (anti-proliferative)
# Procedure: as §1
# Jurkat = experiment: Anti-proliferative activity, MTS assay, Jurkat; type: cell-based; details: Homo sapiens, T-cell line, read-out: PRT382 IC50 (anti-proliferative)
# Procedure: as §1
smiles,measurement,setting,value
"CON=c1nc[nH]c2c1ccn2[C@@H]1O[C@H]([C@H](O)c2ccc(Cl)c(Cl)c2)[C@@H](O)[C@H]1O.Cl [PRT382, (2 R,3 S,4 R,5 R)-2-[(R)-(3,4-dichlorophenyl)-hydroxy-methyl]-5-[(4Z)-4-methoxyimino-1H-pyrrolo[2,3-d]pyrimidin-7-yl]tetrahydrofuran-3,4-diol hydrochloride]",peak plasma level,[1]; 10 mg/kg oral,12 µM
same,DNAUC,[1]; 10 mg/kg,1180 kg·ng·h/mL/mg
same,blood concentration at time point 0.25,[1]; 10 mg/kg,2530
same,blood concentration at time point 0.5,[1]; 10 mg/kg,3240
same,blood concentration at time point 1 h,[1]; 10 mg/kg,2973
same,blood concentration at time point 2 h,[1]; 10 mg/kg,1733
same,blood concentration at time point 4 h,[1]; 10 mg/kg,908
same,blood concentration at time point 8 h,[1]; 10 mg/kg,530
same,blood concentration at time point 12 h,[1]; 10 mg/kg,46
same,blood concentration at time point 24 h,[1]; 10 mg/kg,0 ng/mL
same,peak plasma level,[1]; 30 mg/kg oral,32 µM
same,DNAUC,[1]; 30 mg/kg,763 kg·ng·h/mL/mg
same,blood concentration at time point 0.25,[1]; 30 mg/kg,3753
same,blood concentration at time point 0.5,[1]; 30 mg/kg,4560
same,blood concentration at time point 1 h,[1]; 30 mg/kg,4613
same,blood concentration at time point 2 h,[1]; 30 mg/kg,2990
same,blood concentration at time point 4 h,[1]; 30 mg/kg,2027
same,blood concentration at time point 8 h,[1]; 30 mg/kg,1350
same,blood concentration at time point 12 h,[1]; 30 mg/kg,138
same,blood concentration at time point 24 h,[1]; 30 mg/kg,0 ng/mL
same,peak plasma level,[1]; 100 mg/kg oral,75 µM
same,DNAUC,[1]; 100 mg/kg,1700 kg·ng·h/mL/mg
same,blood concentration at time point 0.25,[1]; 100 mg/kg,20267
same,blood concentration at time point 0.5,[1]; 100 mg/kg,25300
same,blood concentration at time point 1 h,[1]; 100 mg/kg,25500
same,blood concentration at time point 2 h,[1]; 100 mg/kg,21367
same,blood concentration at time point 4 h,[1]; 100 mg/kg,16300
same,blood concentration at time point 8 h,[1]; 100 mg/kg,10253
same,blood concentration at time point 12 h,[1]; 100 mg/kg,1753
same,blood concentration at time point 24 h,[1]; 100 mg/kg,7 ng/mL
same,AUC,[1]; 10 mg/kg,11700 ng·h/mL
same,AUC(0-t),[1]; 10 mg/kg,11600 ng·h/mL
same,Cmax,[1]; 10 mg/kg,3240 ng/mL
same,MRT,[1]; 10 mg/kg,3.34 h
same,Tmax,[1]; 10 mg/kg,0.5 h
same,half-life,[1]; 10 mg/kg,1.87 h
same,AUC,[1]; 30 mg/kg,22900 ng·h/mL
same,AUC(0-t),[1]; 30 mg/kg,22300 ng·h/mL
same,Cmax,[1]; 30 mg/kg,4670 ng/mL
same,MRT,[1]; 30 mg/kg,4 h
same,Tmax,[1]; 30 mg/kg,0.83 h
same,half-life,[1]; 30 mg/kg,2.25 h
same,AUC,[1]; 100 mg/kg,170000 ng·h/mL
same,AUC(0-t),[1]; 100 mg/kg,170000 ng·h/mL
same,Cmax,[1]; 100 mg/kg,25800 ng/mL
same,MRT,[1]; 100 mg/kg,4.6 h
same,Tmax,[1]; 100 mg/kg,0.67 h
same,half-life,[1]; 100 mg/kg,1.53 h
same,clearance,[2],low
same,bioavailability,"[2]; dog, in vivo, po, read-out: oral bioavailability (F%)",70 to 80%
same,IC50,RL,16 nM
same,Normalized A490,primary CLL cells; PRT382 0.001 μM,3.307 and 4.074 and 2.806 and 1.916 and 4.967 and 4.310 and 1.926 and 2.473 and 1.595 and 1.924
same,Normalized A490,primary CLL cells; PRT382 0.010 μM,3.718 and 3.941 and 2.668 and 1.775 and 4.704 and 4.675 and 1.969 and 2.468 and 1.587
same,Normalized A490,primary CLL cells; PRT382 0.100 μM,3.022 and 3.734 and 2.874 and 1.799 and 4.461 and 3.405 and 1.501 and 2.532 and 1.373
same,Normalized A490,primary CLL cells; PRT382 1.000 μM,2.691 and 3.811 and 2.801 and 1.761 and 4.387 and 2.568 and 1.496 and 2.524 and 1.293
same,Normalized A490,primary CLL cells; PRT382 10.000 μM,1.699 and 2.509 and 3.622 and 2.474 and 1.561 and 4.249 and 2.269 and 1.136 and 2.309
same,proliferative potential of primary CLL cells,"primary CLL cells; n = 12 IGHV-U patients, 72 h, with and without TLR9 stimulation (CpG)",Dose-dependent decrease in proliferation; also recorded: dose-dependent reduction in proliferative potential
same,lowest dose with decrease in global SDMA residues,Mec-1 CLL cell line,100 nM
same,IC50,U-2932,12 nM
same,clearance,[3],low
same,bioavailability,"[3]; rat, in vivo, po, read-out: oral bioavailability (F%)",70 to 80%
same,IC50,JVM-2,10 nM
same,IC50,CCMCL-1,14 nM
same,IC50,Jurkat,> 1000 nM
